{
  "source": "PubChem BioAssay (NCI)",
  "test_in_all_cases": "DTP human tumour cell line panel, 48 h",
  "key": {"RPMI-8226 leukemia": {"tested_on": "RPMI-8226 leukemia"}, "OVCAR-8 ovarian": {"tested_on": "OVCAR-8 ovarian"}, "SK-MEL-2 melanoma": {"tested_on": "SK-MEL-2 melanoma"}, "DU-145 prostate": {"tested_on": "DU-145 prostate"}, "HT29 colon": {"tested_on": "HT29 colon"}, "SF-539 CNS": {"tested_on": "SF-539 CNS"}, "KM12 colon": {"tested_on": "KM12 colon"}, "M14 melanoma": {"tested_on": "M14 melanoma"}, "786-0 renal": {"tested_on": "786-0 renal"}, "CAKI-1 renal": {"tested_on": "CAKI-1 renal"}, "RXF 393 renal": {"tested_on": "RXF 393 renal"}, "HCC-2998 colon": {"tested_on": "HCC-2998 colon"}, "SNB-19 CNS": {"tested_on": "SNB-19 CNS"}, "BT-549 breast": {"tested_on": "BT-549 breast"}, "SF-268 CNS": {"tested_on": "SF-268 CNS"}, "OVCAR-3 ovarian": {"tested_on": "OVCAR-3 ovarian"}, "IGROV1 ovarian": {"tested_on": "IGROV1 ovarian"}, "HCT-15 colon": {"tested_on": "HCT-15 colon"}, "LOX IMVI melanoma": {"tested_on": "LOX IMVI melanoma"}, "SW-620 colon": {"tested_on": "SW-620 colon"}},
  "note": "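Following 48 hours of exposure in 96-well plates, responses at five concentrations were used to interpolate endpoints linearly. Definition used: TGI = concentration required for complete inhibition of growth.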",
  "data": [
    {"smiles": "CC(=O)Nc1sc([N+](=O)[O-])cc1S(=O)(=O)c1ccc(Cl)cc1", "values": [
      {"measurement": "TGI", "setting": "RPMI-8226 leukemia", "value": "> 100", "unit": "µM"},
      {"measurement": "TGI", "setting": "OVCAR-8 ovarian", "value": "> 100", "unit": "µM"},
      {"measurement": "TGI", "setting": "SK-MEL-2 melanoma", "value": 8.54, "unit": "µM"},
      {"measurement": "TGI", "setting": "DU-145 prostate", "value": "> 40.8", "unit": "µM"},
      {"measurement": "TGI", "setting": "HT29 colon", "value": "> 52.8", "unit": "µM"},
      {"measurement": "TGI", "setting": "SF-539 CNS", "value": 10.2, "unit": "µM"},
      {"measurement": "TGI", "setting": "KM12 colon", "value": 14.5, "unit": "µM"},
      {"measurement": "TGI", "setting": "M14 melanoma", "value": 9.79, "unit": "µM"},
      {"measurement": "TGI", "setting": "786-0 renal", "value": "> 100", "unit": "µM"},
      {"measurement": "TGI", "setting": "CAKI-1 renal", "value": "> 20.8", "unit": "µM"},
      {"measurement": "TGI", "setting": "RXF 393 renal", "value": 13.5, "unit": "µM"},
      {"measurement": "TGI", "setting": "HCC-2998 colon", "value": 8.64, "unit": "µM"},
      {"measurement": "TGI", "setting": "SNB-19 CNS", "value": "> 100", "unit": "µM"},
      {"measurement": "TGI", "setting": "BT-549 breast", "value": "> 24.8", "unit": "µM"},
      {"measurement": "TGI", "setting": "SF-268 CNS", "value": "> 100", "unit": "µM"},
      {"measurement": "TGI", "setting": "OVCAR-3 ovarian", "value": 16.1, "unit": "µM"},
      {"measurement": "TGI", "setting": "IGROV1 ovarian", "value": "> 100", "unit": "µM"},
      {"measurement": "TGI", "setting": "HCT-15 colon", "value": "> 95", "unit": "µM"},
      {"measurement": "TGI", "setting": "LOX IMVI melanoma", "value": "> 100", "unit": "µM"},
      {"measurement": "TGI", "setting": "SW-620 colon", "value": "> 100", "unit": "µM"}
    ]},
    {"smiles": "Cn1cc(-c2cnc(-c3cn(C)c4ccccc34)cn2)c2ccccc21", "values": [
      {"measurement": "TGI", "setting": "RPMI-8226 leukemia", "value": "> 44.4", "unit": "µM"},
      {"measurement": "TGI", "setting": "OVCAR-8 ovarian", "value": 44.5, "unit": "µM"},
      {"measurement": "TGI", "setting": "SK-MEL-2 melanoma", "value": "> 71.2", "unit": "µM"},
      {"measurement": "TGI", "setting": "DU-145 prostate", "value": "> 58.5", "unit": "µM"},
      {"measurement": "TGI", "setting": "HT29 colon", "value": 36.6, "unit": "µM"},
      {"measurement": "TGI", "setting": "SF-539 CNS", "value": 10.4, "unit": "µM"},
      {"measurement": "TGI", "setting": "KM12 colon", "value": 14.8, "unit": "µM"},
      {"measurement": "TGI", "setting": "M14 melanoma", "value": 27.7, "unit": "µM"},
      {"measurement": "TGI", "setting": "786-0 renal", "value": 29.9, "unit": "µM"},
      {"measurement": "TGI", "setting": "CAKI-1 renal", "value": "> 100", "unit": "µM"},
      {"measurement": "TGI", "setting": "RXF 393 renal", "value": 24.7, "unit": "µM"},
      {"measurement": "TGI", "setting": "HCC-2998 colon", "value": 41.7, "unit": "µM"},
      {"measurement": "TGI", "setting": "SNB-19 CNS", "value": "> 100", "unit": "µM"},
      {"measurement": "TGI", "setting": "BT-549 breast", "value": "> 84.7", "unit": "µM"},
      {"measurement": "TGI", "setting": "SF-268 CNS", "value": "> 87.5", "unit": "µM"},
      {"measurement": "TGI", "setting": "OVCAR-3 ovarian", "value": "> 42.4", "unit": "µM"},
      {"measurement": "TGI", "setting": "IGROV1 ovarian", "value": "> 50.5", "unit": "µM"},
      {"measurement": "TGI", "setting": "HCT-15 colon", "value": 47.4, "unit": "µM"},
      {"measurement": "TGI", "setting": "LOX IMVI melanoma", "value": 35.9, "unit": "µM"},
      {"measurement": "TGI", "setting": "SW-620 colon", "value": "> 38.6", "unit": "µM"}
    ]},
    {"smiles": "CO/N=C(/C(=O)N(C(=O)/C(=N/OC)c1csc(NC(c2ccccc2)(c2ccccc2)c2ccccc2)n1)n1cnn(CC(=O)OC(C)(C)C)c1=O)c1csc(NC(c2ccccc2)(c2ccccc2)c2ccccc2)n1", "values": [
      {"measurement": "TGI", "setting": "RPMI-8226 leukemia", "value": "> 10", "unit": "µM"},
      {"measurement": "TGI", "setting": "OVCAR-8 ovarian", "value": "> 10", "unit": "µM"},
      {"measurement": "TGI", "setting": "SK-MEL-2 melanoma", "value": 3.92, "unit": "µM"},
      {"measurement": "TGI", "setting": "DU-145 prostate", "value": "> 10", "unit": "µM"},
      {"measurement": "TGI", "setting": "HT29 colon", "value": "> 10", "unit": "µM"},
      {"measurement": "TGI", "setting": "SF-539 CNS", "value": "> 10", "unit": "µM"},
      {"measurement": "TGI", "setting": "KM12 colon", "value": "> 10", "unit": "µM"},
      {"measurement": "TGI", "setting": "M14 melanoma", "value": "> 10", "unit": "µM"},
      {"measurement": "TGI", "setting": "786-0 renal", "value": "> 10", "unit": "µM"},
      {"measurement": "TGI", "setting": "CAKI-1 renal", "value": "> 10", "unit": "µM"},
      {"measurement": "TGI", "setting": "RXF 393 renal", "value": "> 10", "unit": "µM"},
      {"measurement": "TGI", "setting": "HCC-2998 colon", "value": "> 10", "unit": "µM"},
      {"measurement": "TGI", "setting": "SNB-19 CNS", "value": "> 10", "unit": "µM"},
      {"measurement": "TGI", "setting": "BT-549 breast", "value": 3.96, "unit": "µM"},
      {"measurement": "TGI", "setting": "SF-268 CNS", "value": "> 10", "unit": "µM"},
      {"measurement": "TGI", "setting": "OVCAR-3 ovarian", "value": "> 10", "unit": "µM"},
      {"measurement": "TGI", "setting": "IGROV1 ovarian", "value": "> 10", "unit": "µM"},
      {"measurement": "TGI", "setting": "HCT-15 colon", "value": "> 10", "unit": "µM"},
      {"measurement": "TGI", "setting": "LOX IMVI melanoma", "value": "> 10", "unit": "µM"},
      {"measurement": "TGI", "setting": "SW-620 colon", "value": "> 10", "unit": "µM"}
    ]},
    {"smiles": "O=c1ssc(Cl)c1Nc1c(Cl)ssc1=O", "values": [
      {"measurement": "TGI", "setting": "RPMI-8226 leukemia", "value": 29.9, "unit": "µM"},
      {"measurement": "TGI", "setting": "OVCAR-8 ovarian", "value": 51.3, "unit": "µM"},
      {"measurement": "TGI", "setting": "SK-MEL-2 melanoma", "value": 37.6, "unit": "µM"},
      {"measurement": "TGI", "setting": "DU-145 prostate", "value": 32.3, "unit": "µM"},
      {"measurement": "TGI", "setting": "HT29 colon", "value": 47.5, "unit": "µM"},
      {"measurement": "TGI", "setting": "SF-539 CNS", "value": 59.3, "unit": "µM"},
      {"measurement": "TGI", "setting": "KM12 colon", "value": 32.3, "unit": "µM"},
      {"measurement": "TGI", "setting": "M14 melanoma", "value": 39.8, "unit": "µM"},
      {"measurement": "TGI", "setting": "786-0 renal", "value": 38.2, "unit": "µM"},
      {"measurement": "TGI", "setting": "CAKI-1 renal", "value": 32, "unit": "µM"},
      {"measurement": "TGI", "setting": "RXF 393 renal", "value": 28.3, "unit": "µM"},
      {"measurement": "TGI", "setting": "HCC-2998 colon", "value": 41.3, "unit": "µM"},
      {"measurement": "TGI", "setting": "SNB-19 CNS", "value": 69.1, "unit": "µM"},
      {"measurement": "TGI", "setting": "BT-549 breast", "value": 33.1, "unit": "µM"},
      {"measurement": "TGI", "setting": "SF-268 CNS", "value": 51.8, "unit": "µM"},
      {"measurement": "TGI", "setting": "OVCAR-3 ovarian", "value": 39.4, "unit": "µM"},
      {"measurement": "TGI", "setting": "IGROV1 ovarian", "value": 34.2, "unit": "µM"},
      {"measurement": "TGI", "setting": "HCT-15 colon", "value": 39.6, "unit": "µM"},
      {"measurement": "TGI", "setting": "LOX IMVI melanoma", "value": 31.2, "unit": "µM"},
      {"measurement": "TGI", "setting": "SW-620 colon", "value": "> 54.4", "unit": "µM"}
    ]}
  ]
}
